Experimental data: ChEMBL document CHEMBL5352469, “Solubility-driven optimization of benzothiopyranone salts leading to a preclinical candidate with improved pharmacokinetic properties and activity against Mycobacterium tuberculosis” (Eur J Med Chem, 2023)
Converted amounts (≈) assume the structure as drawn.

How the values were obtained:
[1] = Lipophilicity, log D of the compound in octanol/water at pH 4.0 incubated for 72 hrs under shaking condition by shake flask based HPLC-PDA method; assay type: physicochemical; conditions: pH 4, 72 h
[2] = AUC (0 to t) in Sprague-Dawley rat at 50 mg/kg, po measured upto 24 hrs by LC/MS/MS analysis; assay type: ADME, organism-based; parameters: dose 50 mg/kg, time < 24 hrs, route po; conditions: in vivo
[3] = test system: Mycobacterium tuberculosis; assay: Antibacterial activity against Mycobacterium tuberculosis H37Rv BALB/c mouse model assessed as reduction in delta CFU in lungs at 25 mg/kg via oral gavage for 30 days; assay type: functional; conditions: time 30 day
[4] = Lipophilicity, log D of the compound in octanol/water at pH 2.0 incubated for 72 hrs under shaking condition by shake flask based HPLC-PDA method; assay type: physicochemical; conditions: pH 2, 72 h
[5] = Oral bioavailability in Balb/c mouse at 50 mg/kg measured upto 24 hrs by LC/MS/MS analysis; assay type: ADME, organism-based; conditions: in vivo, po, 50 mg/kg, 24 h
[6] = Lipophilicity, log P of the compound in octanol/water incubated for 72 hrs under shaking condition by shake flask based HPLC-PDA method; assay type: physicochemical; conditions: 72 h
[7] = Cmax in Sprague-Dawley rat at 5 mg/kg, iv measured upto 24 hrs by LC/MS/MS analysis; assay type: ADME, organism-based; parameters: time < 24 hrs, dose 5 mg/kg, route iv; conditions: in vivo
[8] = Apparent permeability across basolateral to apical side in human Caco-2 cells incubated for 21 days; assay type: ADME, cell-based; conditions: time 21 day
[9] = Elimination half life in Balb/c mouse at 50 mg/kg, po measured upto 24 hrs by LC/MS/MS analysis; assay type: ADME, organism-based; conditions: in vivo, read-out: beta t1/2 (converted)
[10] = Efflux ratio of apparent permeability across basolateral to apical side over apical to basolateral side in human Caco-2 cells; assay type: ADME, cell-based
[11] = Elimination half life in Balb/c mouse at 5 mg/kg, iv measured upto 24 hrs by LC/MS/MS analysis; assay type: ADME, organism-based; conditions: in vivo, read-out: beta t1/2 (converted)
[12] = Cmax in Balb/c mouse at 5 mg/kg, iv measured upto 24 hrs by LC/MS/MS analysis; assay type: ADME, organism-based; parameters: dose 5 mg/kg, time < 24 hrs, route iv; conditions: in vivo
[13] = AUC (0 to t) in Balb/c mouse at 50 mg/kg, po measured upto 24 hrs by LC/MS/MS analysis; assay type: ADME, organism-based; parameters: dose 50 mg/kg, time < 24 hrs, route po; conditions: in vivo, 24 h
[14] = AUC (0 to t) in Balb/c mouse at 5 mg/kg, iv measured upto 24 hrs by LC/MS/MS analysis; assay type: ADME, organism-based; parameters: time < 24 hrs, dose 5 mg/kg, route iv; conditions: in vivo, 24 h
[15] = Cmax in Balb/c mouse at 50 mg/kg, po measured upto 24 hrs by LC/MS/MS analysis; assay type: ADME, organism-based; parameters: time < 24 hrs, dose 50 mg/kg, route po; conditions: in vivo
[16] = Aqueous solubility of compound by HPLC-PDA method; assay type: physicochemical; conditions: buffer; read-out: solubility
[17] = AUC (0 to t) in Sprague-Dawley rat at 5 mg/kg, iv measured upto 24 hrs by LC/MS/MS analysis; assay type: ADME, organism-based; parameters: time < 24 hrs, dose 5 mg/kg, route iv; conditions: in vivo
[18] = AUC (0 to infinity) in Sprague-Dawley rat at 5 mg/kg, iv measured upto 24 hrs by LC/MS/MS analysis; assay type: ADME, organism-based; parameters: time < 24 hrs, dose 5 mg/kg, route iv; conditions: in vivo
[19] = Elimination half life in Sprague-Dawley rat at 5 mg/kg, iv measured upto 24 hrs by LC/MS/MS analysis; assay type: ADME, organism-based; conditions: in vivo, read-out: beta t1/2 (converted)
[20] = AUC (0 to infinity) in Sprague-Dawley rat at 50 mg/kg, po measured upto 24 hrs by LC/MS/MS analysis; assay type: ADME, organism-based; parameters: time < 24 hrs, dose 50 mg/kg, route po; conditions: in vivo
[21] = MRT (0 to infinity) in Sprague-Dawley rat at 50 mg/kg, po measured upto 24 hrs by LC/MS/MS analysis; assay type: ADME, organism-based; conditions: in vivo
[22] = MRT (0 to infinity) in Sprague-Dawley rat at 5 mg/kg, iv measured upto 24 hrs by LC/MS/MS analysis; assay type: ADME, organism-based; conditions: in vivo
[23] = Chemical stability of the compound under 60 degree C high temperature by measuring compound purity incubated for 10 days by HPLC-PDA method analysis relative to initial purity; assay type: physicochemical; conditions: 240 h; time 10 day
[24] = test system: Mycobacterium tuberculosis; assay: Antibacterial activity against Mycobacterium tuberculosis H37Rv BALB/c mouse model assessed as reduction in CFU in lungs at 100 mg/kg via oral gavage for 30 days (reference value: 5.92 +/-0.29); assay type: functional; conditions: time 30 day
[25] = Chemical stability of the compound under 4500 +/- 500 lx light condition by measuring compound purity incubated for 10 days by HPLC-PDA method relative to initial purity; assay type: physicochemical; conditions: 240 h; time 10 day
[26] = Chemical stability of the compound under 92.5% humidity by measuring compound purity incubated for 10 days by HPLC-PDA method relative to initial purity; assay type: physicochemical; conditions: 240 h; time 10 day
[27] = test system: Mycobacterium tuberculosis; assay: Antibacterial activity against Mycobacterium tuberculosis H37Rv BALB/c mouse model assessed as reduction in CFU in lungs at 50 mg/kg via oral gavage for 30 days (reference value: 5.92 +/-0.29); assay type: functional; conditions: time 30 day
[28] = test system: Mycobacterium tuberculosis; assay: Antibacterial activity against Mycobacterium tuberculosis H37Rv BALB/c mouse model assessed as reduction in CFU in lungs at 25 mg/kg via oral gavage for 30 days (reference value: 5.92 +/-0.29); assay type: functional; conditions: time 30 day
[29] = Cmax in Sprague-Dawley rat at 50 mg/kg, po measured upto 24 hrs by LC/MS/MS analysis; assay type: ADME, organism-based; parameters: time < 24 hrs, dose 50 mg/kg, route po; conditions: in vivo
[30] = test system: Mycobacterium tuberculosis; assay: Antibacterial activity against Mycobacterium tuberculosis H37Rv BALB/c mouse model assessed as reduction in delta CFU in lungs at 100 mg/kg via oral gavage for 30 days; assay type: functional; conditions: time 30 day
[31] = Oral bioavailability in Sprague-Dawley rat at 50 mg/kg measured upto 24 hrs by LC/MS/MS analysis; assay type: ADME, organism-based; conditions: in vivo
[32] = Elimination half life in Sprague-Dawley rat at 50 mg/kg, po measured upto 24 hrs by LC/MS/MS analysis; assay type: ADME, organism-based; conditions: in vivo, read-out: beta t1/2 (converted)
[33] = test system: Mycobacterium tuberculosis; assay: Antibacterial activity against Mycobacterium tuberculosis H37Rv BALB/c mouse model assessed as reduction in delta CFU in lungs at 50 mg/kg via oral gavage for 30 days; assay type: functional; conditions: time 30 day
[34] = Apparent permeability across apical to basolateral side in human Caco-2 cells incubated for 21 days; assay type: ADME, cell-based; conditions: time 21 day
[35] = Clearance in Sprague-Dawley rat at 5 mg/kg, iv measured upto 24 hrs by LC/MS/MS analysis; assay type: ADME, organism-based; conditions: in vivo
[36] = Lipophilicity, log D of the compound in octanol/water at pH 7.6 incubated for 72 hrs under shaking condition by shake flask based HPLC-PDA method; assay type: physicochemical; conditions: pH 7.6, 72 h
[37] = Lipophilicity, log D of the compound in octanol/water at pH 6.8 incubated for 72 hrs under shaking condition by shake flask based HPLC-PDA method; assay type: physicochemical; conditions: pH 6.8, 72 h
[38] = Tmax in Sprague-Dawley rat at 50 mg/kg, po measured upto 24 hrs by LC/MS/MS analysis; assay type: ADME, organism-based; conditions: in vivo
[39] = Tmax in Balb/c mouse at 50 mg/kg, po measured upto 24 hrs by LC/MS/MS analysis; assay type: ADME, organism-based; conditions: in vivo

O=c1cc(N2CCN(CC3CCCCC3)CC2)sc2c([N+](=O)[O-])cc(C(F)(F)F)cc12
logD [1]: 3.72 | AUC(0-t) at 24 h [2]: 741 ng·h/mL | Activity [3]: 2.28 log10CFU | logD [4]: 1.29 | F [5]: 13.1% | logP [6]: 3.71 | Cmax [7]: 3560 ng/mL | Papp B→A [8]: 0.69 ×10⁻⁶ cm/s | half-life [9]: 435 min | efflux ratio [10]: 0.1 | half-life [11]: 392 min | Cmax [12]: 8240 ng/mL | AUCt [13]: 1581 ng·h/mL | AUCt [14]: 4954 ng·h/mL | Cmax [15]: 588 ng/mL | solubility [16]: 0.15 µg/mL (≈ 0.329 µM) | AUC(0-t) at 24 h [17]: 1540 ng·h/mL | AUC(0-inf) [18]: 1580 ng·h/mL | half-life [19]: 496 min | AUC(0-inf) [20]: 769 ng·h/mL | MRT inf [21]: 5.94 h | MRT inf [22]: 2.99 h | Stability [23]: 100% | Activity [24]: 2.19 log10CFU | Stability [25]: 98.2% | Stability [26]: 100% | Activity [27]: 2.34 log10CFU | Activity [28]: 3.64 log10CFU | Cmax [29]: 109 ng/mL | Activity [30]: 3.73 log10CFU | bioavailability [31]: 4.87% | half-life [32]: 230 min | Activity [33]: 3.58 log10CFU | Papp A→B [34]: 11.8 ×10⁻⁶ cm/s | clearance [35]: 53.8 mL/min/kg | logD [36]: > 4.32 | logD [37]: > 4.3 | Tmax [38]: 3.67 h | Tmax [39]: 30 min
